Test results as given in ChEMBL document CHEMBL1140269, “Amino-substituted heterocycles as isosteres of trans-cinnamides: design and synthesis of heterocyclic biaryl sulfides as potent antagonists of LFA-1/ICAM-1 binding” (Bioorg Med Chem Lett, 2005).
pIC50: −log10 of the molar value. Values joined by “and” are separate entries in the source; they are usually repeats but may differ in a detail not shown here. Equal values may be shown once.

target: Intercellular adhesion molecule (ICAM-1), Integrin alpha-L/beta-2 (Homo sapiens) (UniProt P20701+P05362+P05107); assay: Inhibitory activity against ICAM-1/integrin LFA-1 binding complex at 1 uM concentration; assay type: protein-complex assay

| Compound | inhibition [%] |
| --- | --- |
| CCCC1CCN(c2cc(-c3ccc(Sc4ccccc4C(C)C)c(C(F)(F)F)c3)ccn2)CC1 | 8 |
| Cc1ccc(C)c(N2CCN(c3cc(-c4ccc(Sc5ccccc5C(C)C)c(C(F)(F)F)c4)ccn3)CC2)c1 | 0 |
| CC1CCN(c2cc(-c3ccc(Sc4ccccc4C(C)C)c(C(F)(F)F)c3)ccn2)CC1 | 40 |
| CC(C)c1ccccc1Sc1ccc(-c2ccnc(N3CCN(c4ccccn4)CC3)c2)cc1C(F)(F)F | 40 |
| CC(C)c1ccccc1Sc1ccc(-c2ccnc(N3CCN(C4CCCCC4)CC3)c2)cc1C(F)(F)F | 21 |

target: Intercellular adhesion molecule (ICAM-1), Integrin alpha-L/beta-2 (Homo sapiens, UniProt P05107+P20701); assay: Inhibitory concentration against integrin LFA-1/ICAM-1 binding complex; assay type: protein-complex assay
Sequence (P20701 whole entry): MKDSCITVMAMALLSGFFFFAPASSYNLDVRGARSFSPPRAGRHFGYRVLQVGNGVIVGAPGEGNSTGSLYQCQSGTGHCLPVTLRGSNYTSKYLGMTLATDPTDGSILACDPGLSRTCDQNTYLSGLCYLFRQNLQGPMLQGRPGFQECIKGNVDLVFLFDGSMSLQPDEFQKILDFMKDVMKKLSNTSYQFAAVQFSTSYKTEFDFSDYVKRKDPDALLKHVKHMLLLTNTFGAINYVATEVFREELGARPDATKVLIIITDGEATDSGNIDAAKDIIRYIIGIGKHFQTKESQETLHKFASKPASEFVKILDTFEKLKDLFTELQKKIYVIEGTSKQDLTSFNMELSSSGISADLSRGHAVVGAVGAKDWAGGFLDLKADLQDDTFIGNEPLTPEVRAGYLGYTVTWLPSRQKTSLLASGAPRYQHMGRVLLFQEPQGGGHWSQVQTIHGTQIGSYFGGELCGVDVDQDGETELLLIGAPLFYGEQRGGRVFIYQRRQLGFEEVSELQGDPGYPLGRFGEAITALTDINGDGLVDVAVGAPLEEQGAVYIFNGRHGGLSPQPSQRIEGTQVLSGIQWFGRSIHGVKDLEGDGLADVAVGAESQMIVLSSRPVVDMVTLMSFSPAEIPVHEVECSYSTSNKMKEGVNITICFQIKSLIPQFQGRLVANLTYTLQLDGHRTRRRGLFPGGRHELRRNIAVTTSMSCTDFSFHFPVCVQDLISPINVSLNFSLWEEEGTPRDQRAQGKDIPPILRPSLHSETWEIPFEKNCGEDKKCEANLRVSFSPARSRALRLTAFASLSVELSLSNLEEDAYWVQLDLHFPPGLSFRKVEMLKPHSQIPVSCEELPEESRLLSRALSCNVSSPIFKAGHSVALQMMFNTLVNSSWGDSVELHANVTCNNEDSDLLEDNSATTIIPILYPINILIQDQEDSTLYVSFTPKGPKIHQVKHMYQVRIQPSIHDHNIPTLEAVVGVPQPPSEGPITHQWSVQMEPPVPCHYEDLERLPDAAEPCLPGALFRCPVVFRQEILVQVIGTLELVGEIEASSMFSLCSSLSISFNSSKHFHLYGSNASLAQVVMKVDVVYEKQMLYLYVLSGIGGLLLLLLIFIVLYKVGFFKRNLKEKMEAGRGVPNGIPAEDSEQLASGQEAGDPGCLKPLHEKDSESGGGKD
Sequence (P05362 whole entry, further chain): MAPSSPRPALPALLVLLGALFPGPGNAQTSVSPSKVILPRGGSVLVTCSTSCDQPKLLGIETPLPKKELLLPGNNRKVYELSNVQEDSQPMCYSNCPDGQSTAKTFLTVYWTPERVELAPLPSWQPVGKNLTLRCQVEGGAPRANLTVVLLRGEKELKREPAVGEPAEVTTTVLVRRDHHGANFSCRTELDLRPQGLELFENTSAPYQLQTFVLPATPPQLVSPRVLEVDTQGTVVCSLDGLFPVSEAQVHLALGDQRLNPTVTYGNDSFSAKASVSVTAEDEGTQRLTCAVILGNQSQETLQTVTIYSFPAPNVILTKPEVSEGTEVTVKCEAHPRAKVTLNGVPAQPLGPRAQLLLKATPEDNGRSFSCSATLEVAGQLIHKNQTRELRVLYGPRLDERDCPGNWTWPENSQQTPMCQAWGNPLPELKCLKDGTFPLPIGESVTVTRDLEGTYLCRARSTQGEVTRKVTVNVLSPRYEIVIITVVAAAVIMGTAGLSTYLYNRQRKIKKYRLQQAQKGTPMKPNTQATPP
Sequence (P05107 whole entry): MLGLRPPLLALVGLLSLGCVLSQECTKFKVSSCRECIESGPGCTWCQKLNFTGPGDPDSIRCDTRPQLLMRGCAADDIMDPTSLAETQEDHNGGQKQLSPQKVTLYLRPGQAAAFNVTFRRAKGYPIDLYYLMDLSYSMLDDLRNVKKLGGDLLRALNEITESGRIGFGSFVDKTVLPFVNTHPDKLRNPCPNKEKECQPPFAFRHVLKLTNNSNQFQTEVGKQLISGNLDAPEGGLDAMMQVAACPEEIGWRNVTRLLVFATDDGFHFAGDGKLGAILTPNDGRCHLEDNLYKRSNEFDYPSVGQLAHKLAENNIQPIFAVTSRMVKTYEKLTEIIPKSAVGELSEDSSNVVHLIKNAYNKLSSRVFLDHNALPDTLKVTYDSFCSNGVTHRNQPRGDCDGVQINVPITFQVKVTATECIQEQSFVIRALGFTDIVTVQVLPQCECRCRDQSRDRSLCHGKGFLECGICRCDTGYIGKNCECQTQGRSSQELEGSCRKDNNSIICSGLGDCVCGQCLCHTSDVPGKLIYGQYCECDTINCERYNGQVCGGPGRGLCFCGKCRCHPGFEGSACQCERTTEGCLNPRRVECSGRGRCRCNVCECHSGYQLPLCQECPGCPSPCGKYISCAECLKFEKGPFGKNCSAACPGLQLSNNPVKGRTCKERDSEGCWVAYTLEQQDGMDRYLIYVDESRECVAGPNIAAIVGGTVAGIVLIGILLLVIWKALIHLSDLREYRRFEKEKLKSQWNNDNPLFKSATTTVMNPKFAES

| Compound | pIC50 |
| --- | --- |
| CC(C)c1ccccc1Sc1ccc(-c2cc(N3CCC(CCO)CC3)ncn2)cc1C(F)(F)F | 6.64 |
| COCCCNc1nc(-c2ccc(Sc3ccccc3C(C)C)c(C(F)(F)F)c2)cs1 | 4.98 |
| CC(C)c1ccccc1Sc1ccc(-c2cc(N3CCC(c4nn[nH]n4)CC3)ncn2)cc1C(F)(F)F | 6.97 |
| CCN(C)c1cc(-c2ccc(Sc3ccccc3C(C)C)c(C(F)(F)F)c2)ncn1 | 6.17 |
| OCCC1CCN(c2cc(-c3ccc(Sc4ccc5c(c4)OCCO5)c(C(F)(F)F)c3)ccn2)CC1 | 6.88 |
| CC(C)c1ccccc1Sc1ccc(-c2coc(N3CCOCC3)n2)cc1C(F)(F)F | 5.44 |
| COc1ccccc1Sc1ccc(-c2ccnc(N3C[C@H](O)C[C@H]3C(=O)O)c2)cc1C(F)(F)F | 6.67 |
| CC(=O)N[C@@H]1CCN(c2cc(-c3ccc(Sc4ccccc4C(C)C)c(C(F)(F)F)c3)ccn2)C1 | 7.21 |
| O=C(O)[C@@H]1C[C@@H](O)CN1c1cc(-c2ccc(Sc3ccc4c(c3)OCCO4)c(C(F)(F)F)c2)ccn1 | 6.72 |
| COc1ccccc1Sc1ccc(-c2ccnc(N3CCC[C@@H]3CO)c2)cc1C(F)(F)F | 6.48 |
| OC[C@H]1CCCN1c1cc(-c2ccc(Sc3ccc4c(c3)OCCO4)c(C(F)(F)F)c2)ccn1 | 6.29 |
| CC(C)c1ccccc1Sc1ccc(-c2ccnc(N3CCC(CO)CC3)c2)cc1C(F)(F)F | 6.80 |
| O=C(O)C1CCN(c2cc(-c3ccc(Sc4ccc5c(c4)OCCO5)c(C(F)(F)F)c3)ccn2)CC1 | 7.15 and 7.30 |
| CCN(C(C)=O)C1CCN(c2cc(-c3ccc(Sc4ccccc4C(C)C)c(C(F)(F)F)c3)ncn2)C1 (stereo unspecified) | 6.52 |
| CC(C)c1ccccc1Sc1ccc(-c2cc(N3CCN(c4ccccn4)CC3)ncn2)cc1C(F)(F)F | 5.90 |
| OC1CCN(c2cc(-c3ccc(Sc4ccc5c(c4)OCCO5)c(C(F)(F)F)c3)ccn2)CC1 | 6.52 |
| CC(C)c1ccccc1Sc1ccc(-c2ccnc(N3CCCC3)c2)cc1C(F)(F)F | 6.60 |
| CCOC(=O)N1CCN(c2cc(-c3ccc(Sc4ccccc4C(C)C)c(C(F)(F)F)c3)ncn2)CC1 | 6.33 |
| COc1ccccc1Sc1ccc(-c2ccnc(N3CCCN(C(C)=O)CC3)c2)cc1C(F)(F)F | 6.77 |
| CC(C)c1ccccc1Sc1ccc(-c2cc(NCCCn3ccnc3)ncn2)cc1C(F)(F)F | 6.12 |
| CC(C)c1ccccc1Sc1ccc(-c2cc(N3CCCC(CO)C3)ncn2)cc1C(F)(F)F (stereo unspecified) | 6.64 |

| Compound | pIC50 |
| --- | --- |
| CC(=O)N(C)[C@@H]1CCN(c2cc(-c3ccc(Sc4ccccc4C(C)C)c(C(F)(F)F)c3)ccn2)C1 | 6.95 |
| CC(C)c1ccccc1Sc1ccc(-c2csc(NCCN3CCOCC3)n2)cc1C(F)(F)F | 4.92 |
| COc1ccccc1Sc1ccc(-c2ccnc(N3CCC(C(=O)O)CC3)c2)cc1C(F)(F)F | 6.95 |
| COc1ccccc1Sc1ccc(-c2ccnc(N3CCC(CO)CC3)c2)cc1C(F)(F)F | 7.10 |
| CC(C)c1ccccc1Sc1ccc(-c2coc(N3CCCCC3)n2)cc1C(F)(F)F | 4.82 |
| COc1ccccc1Sc1ccc(-c2ccnc(N3CCN(C=O)CC3)c2)cc1C(F)(F)F | 6.73 |
| COc1ccccc1Sc1ccc(-c2ccnc(N3CC[C@@H](N(C)C(C)=O)C3)c2)cc1C(F)(F)F | 7.06 |
| O[C@@H]1CCN(c2cc(-c3ccc(Sc4ccc5c(c4)OCCO5)c(C(F)(F)F)c3)ccn2)C1 | 6.90 |
| CC(C)c1ccccc1Sc1ccc(-c2ccnc(N3CCC[C@H]3C(=O)O)c2)cc1C(F)(F)F | 7.59 |
| COc1ccccc1Sc1ccc(-c2ccnc(N3CC[C@@H](NC(C)=O)C3)c2)cc1C(F)(F)F | 7.06 |
| CC(C)c1ccccc1Sc1ccc(-c2ccnc(N3CCC(O)CC3)c2)cc1C(F)(F)F | 7.12 |
| CC(C)c1ccccc1Sc1ccc(-c2cc(N(C)C(C)C)ncn2)cc1C(F)(F)F | 6.13 |
| CCOC(=O)CN1CCN(c2cc(-c3ccc(Sc4ccccc4C(C)C)c(C(F)(F)F)c3)ncn2)CC1 | 6.38 |
| CC(C)c1ccccc1Sc1ccc(-c2cc(N3CCC(O)CC3)ncn2)cc1C(F)(F)F | 6.64 |
| CC(C)c1ccccc1Sc1ccc(-c2ccnc(N3CCC[C@H]3CO)c2)cc1C(F)(F)F (stereo in doubt) | 6.32 |
| OCC1CCN(c2cc(-c3ccc(Sc4ccc5c(c4)OCCO5)c(C(F)(F)F)c3)ccn2)CC1 | 6.41 |
| COc1ccccc1Sc1ccc(-c2ccnc(N3CCC(CCO)CC3)c2)cc1C(F)(F)F | 6.95 |
| CCN(CC)C(=O)C1CCCN(c2cc(-c3ccc(Sc4ccccc4C(C)C)c(C(F)(F)F)c3)ncn2)C1 (stereo unspecified) | 6.21 |
| COc1ccccc1Sc1ccc(-c2ccnc(N3CCCC(C(=O)O)C3)c2)cc1C(F)(F)F (stereo unspecified) | 6.91 |
| COc1ccccc1Sc1ccc(-c2ccnc(N3CCC[C@H]3C(=O)O)c2)cc1C(F)(F)F | 7.10 |
| CC(C)c1ccccc1Sc1ccc(-c2ccnc(N3CCC(O)C3)c2)cc1C(F)(F)F (stereo unspecified) | 7.03 |

| Compound | pIC50 |
| --- | --- |
| O=C(O)C1CCCN(c2cc(-c3ccc(Sc4ccc5c(c4)OCCO5)c(C(F)(F)F)c3)ccn2)C1 (stereo in doubt) | 7.52 |
| CC(C)c1ccccc1Sc1ccc(-c2cc(N3CC[C@@H](O)C3)ncn2)cc1C(F)(F)F | 6.80 |
| CC(C)c1ccccc1Sc1ccc(-c2cc(N3CCOCC3)ncn2)cc1C(F)(F)F | 7.10 and 6.49 |
| CC(C)c1ccccc1Sc1ccc(-c2ccnc(N3CCCC(C(=O)O)C3)c2)cc1C(F)(F)F (stereo in doubt) | 7.52 |
| CC(C)c1ccccc1Sc1ccc(-c2ccnc(N3C[C@H](O)C[C@H]3C(=O)O)c2)cc1C(F)(F)F | 7.05 |
| CC(C)c1ccccc1Sc1ccc(-c2cc(N3CCC(C(=O)O)CC3)ncn2)cc1C(F)(F)F | 6.92 |
| CC(C)c1ccccc1Sc1ccc(-c2ccnc(N3CCCC(C(=O)O)C3)c2)cc1C(F)(F)F (stereo in doubt; 16k) | 7.37 |
| CCCN1CCN(c2cc(-c3ccc(Sc4ccccc4OC)c(C(F)(F)F)c3)ccn2)CC1 | 6.05 |
| CC(C)c1ccccc1Sc1ccc(-c2ccnc(N3CCC(CCO)CC3)c2)cc1C(F)(F)F | 6.80 |
| O=CN1CCN(c2cc(-c3ccc(Sc4ccc5c(c4)OCCO5)c(C(F)(F)F)c3)ccn2)CC1 | 6.45 |
| CC(C)c1ccccc1Sc1ccc(-c2cc(N3CCCC(C(N)=O)C3)ncn2)cc1C(F)(F)F (stereo unspecified) | 6.47 |
| CC(=O)NC1CCN(c2cc(-c3ccc(Sc4ccccc4C(C)C)c(C(F)(F)F)c3)ncn2)C1 (stereo unspecified) | 6.66 |
| COc1ccccc1Sc1ccc(-c2ccnc(N3CCC(O)CC3)c2)cc1C(F)(F)F | 6.89 |
| COc1ccccc1Sc1ccc(-c2ccnc(N3CCC(C(N)=O)CC3)c2)cc1C(F)(F)F | 6.85 |
| CCCN1CCN(c2cc(-c3ccc(Sc4ccc5c(c4)OCCO5)c(C(F)(F)F)c3)ccn2)CC1 | 6.13 |
| O=C(O)[C@@H]1CCCN1c1cc(-c2ccc(Sc3ccc4c(c3)OCCO4)c(C(F)(F)F)c2)ccn1 | 6.83 |
| CC(C)c1ccccc1Sc1ccc(-c2cc(N3CCC(C(N)=O)CC3)ncn2)cc1C(F)(F)F | 6.64 |
| CC(C)c1ccccc1Sc1ccc(-c2cc(N3CCCC3CO)ncn2)cc1C(F)(F)F (stereo in doubt) | 6.32 |
| CC(C)c1ccccc1Sc1ccc(-c2ccnc(N3CCC(c4nnn[nH]4)CC3)c2)cc1C(F)(F)F | 7.29 |
| CC(=O)N1CCN(c2cc(-c3ccc(Sc4ccccc4C(C)C)c(C(F)(F)F)c3)ncn2)CC1 | 7.22 and 6.70 |
| CC(C)c1ccccc1Sc1ccc(-c2cc(N3CCC(NC(=O)OC(C)(C)C)C3)ncn2)cc1C(F)(F)F (stereo unspecified) | 6.26 |

| Compound | pIC50 |
| --- | --- |
| CC(=O)N(C)[C@@H]1CCN(c2cc(-c3ccc(Sc4ccc5c(c4)OCCO5)c(C(F)(F)F)c3)ccn2)C1 | 6.77 |
| COc1ccccc1Sc1ccc(-c2ccnc(N3CCN(C(C)=O)CC3)c2)cc1C(F)(F)F | 6.92 |
| CC(=O)N1CCN(c2cc(-c3ccc(Sc4ccccc4C(C)C)c(C(F)(F)F)c3)ccn2)CC1 | 7.03 and 7.22 |
| O=C(O)C1CCCN(c2cc(-c3ccc(Sc4ccc5c(c4)OCCO5)c(C(F)(F)F)c3)ccn2)C1 (stereo in doubt; 18L) | 7.12 |
| CC(=O)N1CCN(c2cc(-c3ccc(Sc4ccc5c(c4)OCCO5)c(C(F)(F)F)c3)ccn2)CC1 | 6.88 and 7.22 |
| CC(=O)N[C@@H]1CCN(c2cc(-c3ccc(Sc4ccc5c(c4)OCCO5)c(C(F)(F)F)c3)ccn2)C1 | 6.95 |
| CC(C)c1ccccc1Sc1ccc(-c2ccnc(N3CCC(C(N)=O)CC3)c2)cc1C(F)(F)F | 7.14 |
| NC(=O)C1CCN(c2cc(-c3ccc(Sc4ccc5c(c4)OCCO5)c(C(F)(F)F)c3)ccn2)CC1 | 6.85 |
| CC(=O)N1CCN(C(=O)/C=C/c2ccc(Sc3ccccc3C(C)C)c(C(F)(F)F)c2)CC1 | 7.22 |
| CC(C)c1ccccc1Sc1ccc(-c2ccnc(N3CC[C@@H](O)[C@H](C(=O)O)C3)c2)cc1C(F)(F)F | 7.37 |
| CC(=O)N1CCCN(c2cc(-c3ccc(Sc4ccc5c(c4)OCCO5)c(C(F)(F)F)c3)ccn2)CC1 | 6.44 |
| CC(C)c1ccccc1Sc1ccc(-c2ccnc(N3CCC(C(=O)O)CC3)c2)cc1C(F)(F)F | 7.38 and 7.30 |
| CC(C)c1ccccc1Sc1ccc(-c2cc(N3CCCC3CO)ncn2)cc1C(F)(F)F (stereo in doubt; 10w) | 6.17 |
| COc1ccccc1Sc1ccc(-c2ccnc(N3CC[C@@H](O)C3)c2)cc1C(F)(F)F | 7.11 |
| CC(C)c1ccccc1Sc1ccc(-c2ccnc(N3CCC[C@H]3CO)c2)cc1C(F)(F)F (stereo in doubt; 16x) | 6.58 |
| CC(C)c1ccccc1Sc1ccc(-c2ccnc(N3CCN(C=O)CC3)c2)cc1C(F)(F)F | 6.78 |
| CC(C)c1ccccc1Sc1ccc(-c2ccnc(N3CCCCC3)c2)cc1C(F)(F)F | 6.00 |
| CC1CN(c2cc(-c3ccc(Sc4ccccc4C(C)C)c(C(F)(F)F)c3)ncn2)CC(C)O1 (stereo unspecified) | 6.31 |
